One data set relates to HES1 3′UTR. Description: Luciferase reporter assay, HES1 3′UTR. The data set is classed as cell-based, human. Conditions: co-transfected miR-199b-5p expression vector. As for the experimental part:
To determine the activity of miR-199b-5p on repression of the luciferase-3′UTR fused constructs, the pREYZO-miR-199b-5p construct and the pRL-CMV-3′UTR target construct were co-transfected into HEK293 cells at a ratio of 10:1, using the Polyfect reagent (Qiagen) together with the pGL3 basic vector, in the absence and presence of 2-OM (400 nM). Luciferase activities were analysed using a Dual Luciferase Reporter Assay system (Promega, Madison, Wis.).
Pre-miR-199b was cloned in a pcDNA3 modified vector (pREYZO) (D'angelo et al., 2004) using EcoRI-XhoI restriction sites. HES1 and GSK-3˜target-binding sites (3′UTRs) were cloned in tandem in the 3′UTR of 20 the pRL-cytomegalovirus (CMV) vector (Promega, Madison, Wis.) downstream of the coding region of Renilla luciferase (RL) in the XbaI site The HES1 3′UTR (including the 199b binding site) was amplified from genomic DNA with the following primers: HES1—3′UTR as […] (SEQ ID NO: 96) and HES1—3′UTR as […] (SEQ ID NO: 97), and was cloned in the TK vector (Promega, Madison, Wis.) upstream of the firefly luciferase gene, in the XbaI sites. HES1 full-length cDNA was obtained with a standard RTPCR approach from a Daoy cDNA.
The site-directed mutagenesis of the miR-199b-5p binding site in HES1 3′UTR was generated according to the manufacturer protocol of the QuikChange site-directed mutagenesis kit (Stratagene, La Jolla, Calif.). […]
A general note: A reporter such as luciferase makes a cellular process visible.

For data set [1], the system named is Daoy cells. Description: Orthotopic cerebellar xenograft (BLI, PET-CT, immunohistochemistry). To be noted: 199bSC1 clone injected into fourth ventricle, four weeks, vs control cells. The data set is classed as in vivo, nude mice. How it is done: The mice were kept in a ventilated cage (26° C.) for 1 h prior to imaging studies. Anesthesia was performed with intraperitoneal administration of a mixture of ketamine (100 mg/kg) and xylazine (10 mg/kg) (injection volume, 100 μl/10 g). PET was performed 1 h after administration of 3′-deoxy-3′-[18F]fluorothymidine ([18F]FLT), a marker of tumor proliferation (50 μL; 7.4 MBq; scan time, 18 min), in a lateral caudal vein, using an animal PET scanner (GE Healthcare eXplore Vista, FWHM 1.6 mm). High resolution CT studies (GE Healtcare eXplore Locus; spatial resolution, 45 μm) were performed within 24 h from the PET.
Lesion volumes were calculated from PET data using in-house-developed software (based on IDL, ITT Vis Inc), by summarizing all spatially connected voxels with SUV>50% SUVmax. Lesion profiles defined with these procedures were used for ROI-based comparison between AdV5-Mock and AdV5-199b.
Unmasking was performed in 10 mM citrate buffer, pH 6, at 97° C. for 45 min. […]
To establish intracerebellar xenograft models, 6-to-8-week-old SCID mice were anesthetized with Tribromoethanol (Avertin®) (50 mg/kg); after this, a small skin incision (1 mm) was made and a burr hole (0.7 mm in diameter) created with a microsurgical drill (Fine Science Tools, Foster City, Calif.). […] The animals were monitored weekly by bioluminescence to evaluate tumor growth for 8 weeks.

The subject of data set [2] is Daoy cells. Description: Proliferation assay MTS, Daoy. The data set is classed as cell-based, human. To be noted: stable 199bMC1 and 199bSC1 clones vs empty-vector clone. As for the experimental part: (§1) Cell proliferation was determined using the CellTiter96 AQueous Non-Radioactive Cell Proliferation Assay Kit (Promega Madison, Wis.). The cells were seeded into 96-well plates at a density of 1×10^3 cells/well in EMEM without or with FBS. After 0, 24, 48 and 72 h, MTS ([3-(4,5-dimethylthiazol-2-yl)-5-(3-carboxymethoxyphenyl)-2-(4-sulfophenyl)-2H-tetrazolium]) and PMS (phenazine methosulfate) were added to each well and after 4 h the absorbance of each well was measured at 490 nm (OD490) using Multilabel counter Victor^3 (Perkin Elmer). Each condition was performed with five wells and each experiment was repeated twice.
Proliferation assay (MTS) was made by kit CellTiter96 AQueous Non-Radioactive Cell Proliferation Assay (Promega) for 72 h. The cell lines daoy, MDA-231T and 4t1 treated with the control SNALP and with the miR 199b-5p were transferred in 96 multiwell at the concentration of 1000 and 3000 cells (daoy, MDA-231T and 4t1, respectively) in 100 μl of complete medium. For each experimental point were done 5 replicates. After 24, 48 e 72 h in each well was added 20 μl of 5× solution. After 4 h was read the absorbance of the formazane at 490 nm by Multilabel counter Victor3 (Perkin Elmer).

For data set [3], the system named is Daoy cells. Description: FACS cell-cycle analysis (propidium iodine). The class given is cell-based, human. How it is done: The flow cytometry analysis of S-phase fractions and cell-cycle kinetics were carried out using a FACSCalibur (Becton Dickinson, San Jose, Calif.) using CELL Quest version 3.3 software. The CD133 studies were carried out using the same instrument, with antibodies from Miltenyi Biotec (Auburn, Calif.), according to the manufacturer instructions. In brief, the cells were blocked in Fc receptor blocking reagent and incubated with an anti-CD133/1 (AC133)-phycoerythrin antibody (Miltenyi Biotec), for 10 min in the dark at 4° C. The cells were then washed and resuspended in PBS. Cells expressing higher levels of CD133 than the immunoglobulin G (IgG) controls were considered positive. For analyses of the side populations, cells […] were incubated with Hoechst 33342 (5 μmol/L; Sigma) for 90 min at 37° C. in EMEM containing 2% FBS. To ensure the correct identification of the side population cells, the cells were incubated as above with the addition of 50 μM verapamil (Sigma).

In a further data set the test system is D283MED cells. Kind of data set: Proliferation assay MTS, D283MED. The class given is cell-based, human. Conditions: transient transfection vs mock-transfected cells. How it is done:
as §1

Where [4] appears, read: stable 199bSC1 clone vs empty vector clone.

Experimental findings from patent US9017938B2, “Use of microrna-199b-5p in medical and diagnostic field” (Advanced Accelerator Applications, priority 2009, dated 2015) are described below.

Take “miR-199b-5p: mature microRNA CCCAGUGUUUAGACUAUCUGUUC (SEQ ID NO:11); over-expressed from pre-miR-199b construct, e.g. stable Daoy clones 199bSC1, 199bMC1 (listed as RNA, chemistry not fully specified)”: in the data set on HES1 3′UTR, the “effect on luciferase reporter with HES1 3′UTR mutated in the miR-199b binding site” value is on record as “no effect”. The “reduction of luciferase activity from wild-type HES1 3′UTR reporter” value in the data set with HES1 3′UTR (HEK293 and Daoy cell lines) is 50%. In the data set with Daoy cells [1], the “tumor growth by BLI” value is given as “considerably lower”. Also, in the data set with Daoy cells [2], the proliferation rate entry is given as “markedly reduced proliferation rates”. Further, in the data set on Daoy cells [3] (stable 199bMC1 clone), the “changes in cell cycle” value is “did not show significant changes”. In the data set with Daoy cells [3] (setting [4]), the “decrease in S-phase fractions” value turned out to be 31% and the “increase in cells in G0-G1” value was found to be 15%. Further, in the data set with D283MED cells, the proliferation result was “decreased proliferation”.
